Measurements as given in patent US5110800A, “Derivatives of erythromycylamine” (Eli Lilly and Company, priority 1989, dated 1992).
Converted amounts (≈) assume the structure as drawn. Where two headings read alike, the source gives them in different places.

Legend:
Assay in all cases: MIC, standard agar-dilution assay
Format in all cases: cell-based
[1] = test system: Staphylococcus aureus X1.1; conditions: Staphylococcus aureus, X1.1, read-out: minimal inhibitory concentration (MIC)
[2] = test system: Staphylococcus epidermidis 270
Description: (§1) In addition to excellent in vitro activity against erythromycin-sensitive bacteria, several members of this new series have shown in vitro activity against erythromycin-resistant strains. These include strains which are inducibly-resistant to erythromycin (S. aureus V41 and X400 and S. epidermidis EPI1) and even strains which are constitutively-resistant (S. epidermidis 270).

[3] = test system: Staphylococcus epidermidis 222; conditions: Staphylococcus epidermidis, 222, read-out: minimal inhibitory concentration (MIC)
[4] = test system: Streptococcus pyogenes C203; conditions: Streptococcus pyogenes, C203, read-out: minimal inhibitory concentration (MIC)
[5] = test system: Streptococcus sp. group D X66; conditions: Streptococcus, read-out: minimal inhibitory concentration (MIC)
[6] = test system: Streptococcus sp. group D 2041; conditions: Streptococcus, read-out: minimal inhibitory concentration (MIC)
[7] = test system: Haemophilus influenzae 76
[8] = test system: Staphylococcus aureus V41; conditions: Staphylococcus aureus
Description: as §1

[9] = test system: Staphylococcus aureus X400; conditions: Staphylococcus aureus
Description: as §1

[10] = test system: Streptococcus pneumoniae Park I; conditions: Streptococcus pneumoniae, read-out: minimal inhibitory concentration (MIC)
[11] = test system: Haemophilus influenzae C.L.; conditions: Haemophilus influenzae, read-out: minimal inhibitory concentration (MIC)
[12] = test system: Escherichia coli EC14; conditions: Escherichia coli
[13] = test system: Klebsiella pneumoniae X68; conditions: Klebsiella pneumoniae
[14] = test system: Staphylococcus aureus S13E; conditions: Staphylococcus aureus, S13E, read-out: minimal inhibitory concentration (MIC)
[15] = Staphylococcus epidermidis, 270, Table IV, constitutively erythromycin-resistant, read-out: minimal inhibitory concentration (MIC)
[16] = Haemophilus influenzae, 76, read-out: minimal inhibitory concentration (MIC)
[17] = V41, Table IV, penicillin-resistant strain, inducibly erythromycin-resistant, read-out: minimal inhibitory concentration (MIC)
[18] = X400, Table IV, methicillin-resistant strain, inducibly erythromycin-resistant, read-out: minimal inhibitory concentration (MIC)
[19] = EC14, read-out: minimal inhibitory concentration (MIC)
[20] = X68, read-out: minimal inhibitory concentration (MIC)
[21] = EC14, Table IV, agar dilution, read-out: minimal inhibitory concentration (MIC)
[22] = X68, Table IV, agar dilution, read-out: minimal inhibitory concentration (MIC)
[23] = Haemophilus influenzae, 76, Table IV, ampicillin-resistant strain, read-out: minimal inhibitory concentration (MIC)

Row | SMILES | MIC [1] | MIC [2, 15] | MIC [3] | MIC [4] | MIC [5] | MIC [6] | MIC [7, 16] | MIC [8, 17] | MIC [9, 18] | MIC [10] | MIC [11] | MIC [12, 19] | MIC [12, 21] | MIC [13, 22] | further results
1 | CC[C@H]1OC(=O)[C@H](C)[C@@H](O[C@H]2C[C@@](C)(OC)[C@@H](O)[C@H](C)O2)[C@H](C)[C@@H](O[C@@H]2O[C@H](C)C[C@H](N(C)C)[C@H]2O)[C@](C)(O)C[C@@H](C)[C@H](NC)[C@H](C)[C@@H](O)[C@]1(C)O [Compound 1, 9-Deoxo-9-(methylamino)erythromycin] | 1 µg/mL (≈ 1.34 µM) | > 128 µg/mL | 0.25 µg/mL (≈ 0.334 µM) | 0.06 µg/mL (≈ 0.0801 µM) | 0.125 µg/mL (≈ 0.167 µM) | 1 µg/mL (≈ 1.34 µM) | 1 µg/mL (≈ 1.34 µM) |  |  |  |  |  |  |  | 
2 | CCCCN[C@@H]1[C@H](C)[C@@H](O)[C@](C)(O)[C@@H](CC)OC(=O)[C@H](C)[C@@H](O[C@H]2C[C@@](C)(OC)[C@@H](O)[C@H](C)O2)[C@H](C)[C@@H](O[C@@H]2O[C@H](C)C[C@H](N(C)C)[C@H]2O)[C@](C)(O)C[C@H]1C [Compound 4, 9-Deoxo-9-(n-butylamino)erythromycin] | 0.25 µg/mL (≈ 0.316 µM) | > 128 µg/mL | 0.25 µg/mL (≈ 0.316 µM) | 0.06 µg/mL (≈ 0.0758 µM) | 0.125 µg/mL (≈ 0.158 µM) | 1 µg/mL (≈ 1.26 µM) | 1 µg/mL (≈ 1.26 µM) | > 128 µg/mL | > 128 µg/mL | 0.015 µg/mL (≈ 0.019 µM) | 1 µg/mL (≈ 1.26 µM) |  |  |  | 
3 | CCCCCN[C@@H]1[C@H](C)[C@@H](O)[C@](C)(O)[C@@H](CC)OC(=O)[C@H](C)[C@@H](O[C@H]2C[C@@](C)(OC)[C@@H](O)[C@H](C)O2)[C@H](C)[C@@H](O[C@@H]2O[C@H](C)C[C@H](N(C)C)[C@H]2O)[C@](C)(O)C[C@H]1C [Compound 5, 9-Deoxo-9-(n-pentylamino)erythromycin] |  | > 128 µg/mL |  | 0.06 µg/mL (≈ 0.0745 µM) | 0.125 µg/mL (≈ 0.155 µM) |  |  | > 128 µg/mL | > 128 µg/mL | 0.015 µg/mL (≈ 0.0186 µM) |  | 128 µg/mL (≈ 159 µM) |  |  | MIC [13, 20]: 128 µg/mL (≈ 159 µM)
4 | CCCCCCCCCCN[C@@H]1[C@H](C)[C@@H](O)[C@](C)(O)[C@@H](CC)OC(=O)[C@H](C)[C@@H](O[C@H]2C[C@@](C)(OC)[C@@H](O)[C@H](C)O2)[C@H](C)[C@@H](O[C@@H]2O[C@H](C)C[C@H](N(C)C)[C@H]2O)[C@](C)(O)C[C@H]1C [Compound 9, 9-Deoxo-9-(n-decylamino)erythromycin] | 1 µg/mL (≈ 1.14 µM) |  | 1 µg/mL (≈ 1.14 µM) | 0.015 µg/mL (≈ 0.0171 µM) | 0.25 µg/mL (≈ 0.286 µM) | 2 µg/mL (≈ 2.29 µM) | 1 µg/mL (≈ 1.14 µM) |  |  | 0.015 µg/mL (≈ 0.0171 µM) | 2 µg/mL (≈ 2.29 µM) |  | > 128 µg/mL | > 128 µg/mL | 
5 | CCCCCCCCCCCCN[C@@H]1[C@H](C)[C@@H](O)[C@](C)(O)[C@@H](CC)OC(=O)[C@H](C)[C@@H](O[C@H]2C[C@@](C)(OC)[C@@H](O)[C@H](C)O2)[C@H](C)[C@@H](O[C@@H]2O[C@H](C)C[C@H](N(C)C)[C@H]2O)[C@](C)(O)C[C@H]1C [Compound 10, 9-Deoxo-9-(n-dodecylamino)erythromycin] |  |  |  |  | 1 µg/mL (≈ 1.11 µM) |  |  |  |  | 0.06 µg/mL (≈ 0.0664 µM) |  |  | > 128 µg/mL | > 128 µg/mL | 
6 | CCCCC/C=C\CCCN[C@@H]1[C@H](C)[C@@H](O)[C@](C)(O)[C@@H](CC)OC(=O)[C@H](C)[C@@H](O[C@H]2C[C@@](C)(OC)[C@@H](O)[C@H](C)O2)[C@H](C)[C@@H](O[C@@H]2O[C@H](C)C[C@H](N(C)C)[C@H]2O)[C@](C)(O)C[C@H]1C [Compound 13] | 0.25 µg/mL (≈ 0.286 µM) |  |  |  | 0.06 µg/mL (≈ 0.0687 µM) |  |  |  |  |  | 2 µg/mL (≈ 2.29 µM) | 128 µg/mL (≈ 147 µM) |  | > 128 µg/mL | 
7 | CCCCC/C=C/CCCN[C@@H]1[C@H](C)[C@@H](O)[C@](C)(O)[C@@H](CC)OC(=O)[C@H](C)[C@@H](O[C@H]2C[C@@](C)(OC)[C@@H](O)[C@H](C)O2)[C@H](C)[C@@H](O[C@@H]2O[C@H](C)C[C@H](N(C)C)[C@H]2O)[C@](C)(O)C[C@H]1C [Compound 14, 9-Deoxo-9-[(trans-dec-4-enyl)amino]erythromycin] | 0.5 µg/mL (≈ 0.573 µM) |  | 0.25 µg/mL (≈ 0.286 µM) |  |  | 2 µg/mL (≈ 2.29 µM) |  |  |  |  | 2 µg/mL (≈ 2.29 µM) | 128 µg/mL (≈ 147 µM) |  | > 128 µg/mL | 
8 | CC[C@H]1OC(=O)[C@H](C)[C@@H](O[C@H]2C[C@@](C)(OC)[C@@H](O)[C@H](C)O2)[C@H](C)[C@@H](O[C@@H]2O[C@H](C)C[C@H](N(C)C)[C@H]2O)[C@](C)(O)C[C@@H](C)[C@H](NCC2CCCCCCC2)[C@H](C)[C@@H](O)[C@]1(C)O [Compound 16, 9-Deoxo-9-[(cyclooctylmethyl)amino]erythromycin] | 0.5 µg/mL (≈ 0.582 µM) | > 128 µg/mL | 0.25 µg/mL (≈ 0.291 µM) |  |  | 1 µg/mL (≈ 1.16 µM) | 1 µg/mL (≈ 1.16 µM) |  |  |  |  |  |  | > 128 µg/mL | 
9 | CC[C@H]1OC(=O)[C@H](C)[C@@H](O[C@H]2C[C@@](C)(OC)[C@@H](O)[C@H](C)O2)[C@H](C)[C@@H](O[C@@H]2O[C@H](C)C[C@H](N(C)C)[C@H]2O)[C@](C)(O)C[C@@H](C)[C@H](NCCCc2ccccc2)[C@H](C)[C@@H](O)[C@]1(C)O [Compound 17, (9S)-9-Deoxo-9-[(3-phenylpropyl)amino]erythromycin] | 1 µg/mL (≈ 1.17 µM) | > 128 µg/mL | 0.5 µg/mL (≈ 0.586 µM) | 0.015 µg/mL (≈ 0.0176 µM) | 0.06 µg/mL (≈ 0.0703 µM) | 2 µg/mL (≈ 2.34 µM) |  | > 128 µg/mL | > 128 µg/mL | 0.015 µg/mL (≈ 0.0176 µM) | 2 µg/mL (≈ 2.34 µM) | 128 µg/mL (≈ 150 µM) |  | > 128 µg/mL | 
10 | CC[C@H]1OC(=O)[C@H](C)[C@@H](O[C@H]2C[C@@](C)(OC)[C@@H](O)[C@H](C)O2)[C@H](C)[C@@H](O[C@@H]2O[C@H](C)C[C@H](N(C)C)[C@H]2O)[C@](C)(O)C[C@@H](C)[C@H](NCCCSC)[C@H](C)[C@@H](O)[C@]1(C)O [Compound 26, 9-Deoxo-9-[[3-(methylthio)propyl]amino]erythromycin] |  | > 128 µg/mL |  | 0.015 µg/mL (≈ 0.0182 µM) | 0.25 µg/mL (≈ 0.304 µM) |  |  | > 128 µg/mL | > 128 µg/mL | 0.015 µg/mL (≈ 0.0182 µM) |  | 128 µg/mL (≈ 156 µM) |  | > 128 µg/mL | 
11 | CCOC(=O)C1CC1CN[C@@H]1[C@H](C)[C@@H](O)[C@](C)(O)[C@@H](CC)OC(=O)[C@H](C)[C@@H](O[C@H]2C[C@@](C)(OC)[C@@H](O)[C@H](C)O2)[C@H](C)[C@@H](O[C@@H]2O[C@H](C)C[C@H](N(C)C)[C@H]2O)[C@](C)(O)C[C@H]1C (some centres unmarked) [Compound 27, 9-Deoxo-9-[[[2-(ethoxycarbonyl)cyclopropyl]methyl]amino]erythromycin] | 1 µg/mL (≈ 1.16 µM) | > 128 µg/mL | 0.5 µg/mL (≈ 0.581 µM) | 0.5 µg/mL (≈ 0.581 µM) | 0.125 µg/mL (≈ 0.145 µM) | 2 µg/mL (≈ 2.32 µM) |  | > 128 µg/mL | > 128 µg/mL |  | 2 µg/mL (≈ 2.32 µM) | 128 µg/mL (≈ 149 µM) |  |  | MIC [14]: 1 µg/mL (≈ 1.16 µM); MIC [7, 23]: 2 µg/mL (≈ 2.32 µM); MIC [13, 20]: 128 µg/mL (≈ 149 µM)
12 | C=CCCCCCCCCCN[C@@H]1[C@H](C)[C@@H](O)[C@](C)(O)[C@@H](CC)OC(=O)[C@H](C)[C@@H](O[C@H]2C[C@@](C)(OC)[C@@H](O)[C@H](C)O2)[C@H](C)[C@@H](O[C@@H]2O[C@H](C)C[C@H](N(C)C)[C@H]2O)[C@](C)(O)C[C@H]1C [Compound 28, 9-Deoxo-9-[(undec-10-enyl)amino]erythromycin] | 2 µg/mL (≈ 2.25 µM) | 32 µg/mL (≈ 36.1 µM) | 1 µg/mL (≈ 1.13 µM) | 1 µg/mL (≈ 1.13 µM) | 0.125 µg/mL (≈ 0.141 µM) | 2 µg/mL (≈ 2.25 µM) |  | 8 µg/mL (≈ 9.02 µM) | 8 µg/mL (≈ 9.02 µM) |  | 2 µg/mL (≈ 2.25 µM) |  | > 128 µg/mL | > 128 µg/mL | MIC [14]: 2 µg/mL (≈ 2.25 µM); MIC [7, 23]: 2 µg/mL (≈ 2.25 µM)
13 | CC[C@H]1OC(=O)[C@H](C)[C@@H](O[C@H]2C[C@@](C)(OC)[C@@H](O)[C@H](C)O2)[C@H](C)[C@@H](O[C@@H]2O[C@H](C)C[C@H](N(C)C)[C@H]2O)[C@](C)(O)C[C@@H](C)[C@H](NCCCC#N)[C@H](C)[C@@H](O)[C@]1(C)O [Compound 29, 9-Deoxo-9-[(3-cyanopropyl)amino]erythromycin] | 1 µg/mL (≈ 1.25 µM) |  | 1 µg/mL (≈ 1.25 µM) | 1 µg/mL (≈ 1.25 µM) | 0.125 µg/mL (≈ 0.156 µM) |  |  |  |  |  | 2 µg/mL (≈ 2.49 µM) |  | 64 µg/mL (≈ 79.8 µM) |  | MIC ([8]; V41, read-out: minimal inhibitory concentration (MIC)): > 128 µg/mL; MIC ([9]; X400, read-out: minimal inhibitory concentration (MIC)): > 128 µg/mL; MIC ([2]; Staphylococcus epidermidis, 270, read-out: minimal inhibitory concentration (MIC)): > 128 µg/mL; MIC [14]: 128 µg/mL (≈ 160 µM); MIC ([6]; Table IV, agar dilution): 4 µg/mL (≈ 4.99 µM); MIC [7, 23]: 4 µg/mL (≈ 4.99 µM); MIC [13, 20]: 128 µg/mL (≈ 160 µM)
